In brackets after ≈: the same amount, converted by molar mass.
Key:
[1] = test system: Bacteroides melaninogenicus; experiment: In vitro activity against anaerobes in fluid Thioglycollate medium (Table II); format: cell-based
Description: (§1) All the tests were carried out and (when necessary) scored under standard conditions. "MIC" means "minimum inhibitory concentration."
(§2) In vitro activity of 2-aminoalkyl-3-phenylindoles of the formula I
(§3) against anaerobes in fluid Thioglycollate medium

Eubacterium lentum = experiment: as above; format: cell-based; conditions: Eggerthella lenta
Description: as §1, §2, §3

Candida albicans = experiment: In vitro Anti-Candida activity, dilutions in Sabouraud's Dextrose Agar (Table III); format: cell-based; conditions: 48 h
Description: as §1
In vitro Anti-Candida Activity of 2-aminoalkyl-3-phenyl-
indoles of the formula I. Dilutions in Sabouraud's Dextrose
MIC (mcg/ml) after 48 hours

[2] = Acute toxicity in mice (Table V); conditions: mouse, in vivo
Description: as §1
Acute Toxicity of 2-aminoalkyl-3-phenylindoles of the formula I

T. mentagrophytes = experiment: Effect against topical T. mentagrophytes infections in guinea pigs (Table VI); format: in vivo; parameters: Average Sum of lesion scores, Days 1-5 / Average Sum of lesion scores, Days 1-10: scale not given here; conditions: for Average Sum of lesion scores, Days 1-5: untreated controls 14.8; for Average Sum of lesion scores, Days 1-10: untreated controls 38.2
Description: as §1
Effect of some 2-aminoalkyl-3-phenylindoles of the formula II
against topical T. mentagrophytes infections in guinea pigs.

[3] = strain Atkisson, after 48 hours
[4] = strain Bertrand, after 48 hours
[5] = strain Burnside, after 48 hours
[6] = strain Kenndy 2, after 48 hours
[7] = strain Kennedy 1, after 48 hours
[8] = strain Shurelli, after 48 hours

## NCc1[nH]c2ccc(Cl)cc2c1-c1ccccc1 [C, 2-(1-aminomethyl)-5-chloro-3-phenylindole]
[1]; 48 hrs
  MIC: 7.5 µg/mL (≈ 29.2 µM)
[1]; 72 hrs
  MIC: 7.5 µg/mL (≈ 29.2 µM)
Eubacterium lentum; 48 hrs
  MIC: 7.5 µg/mL (≈ 29.2 µM)
Eubacterium lentum; 72 hrs
  MIC: 7.5 µg/mL (≈ 29.2 µM)
Candida albicans; strain 1, after 48 hours
  MIC: 75 µg/mL (≈ 292 µM)
Candida albicans; strain 2, after 48 hours
  MIC: 75 µg/mL (≈ 292 µM)
Candida albicans; strain 3, after 48 hours
  MIC: 75 µg/mL (≈ 292 µM)
Candida albicans; strain 4, after 48 hours
  MIC: 37.5 µg/mL (≈ 146 µM)
Candida albicans; strain 5, after 48 hours
  MIC: 75 µg/mL (≈ 292 µM)
Candida albicans; strain 6, after 48 hours
  MIC: 75 µg/mL (≈ 292 µM)
Candida albicans; strain 8, after 48 hours
  MIC: 75 µg/mL (≈ 292 µM)
Candida albicans; strain 9, after 48 hours
  MIC: 75 µg/mL (≈ 292 µM)
Candida albicans; strain 29, after 48 hours
  MIC: 37.5 µg/mL (≈ 146 µM)
Candida albicans; [3]
  MIC: 75 µg/mL (≈ 292 µM)
Candida albicans; [4]
  MIC: 75 µg/mL (≈ 292 µM)
Candida albicans; strain Bevan, after 48 hours
  MIC: 75 µg/mL (≈ 292 µM)
Candida albicans; strain Blunden, after 48 hours
  MIC: 75 µg/mL (≈ 292 µM)
Candida albicans; strain Bognay, after 48 hours
  MIC: 75 µg/mL (≈ 292 µM)
Candida albicans; strain Boyer, after 48 hours
  MIC: 75 µg/mL (≈ 292 µM)
Candida albicans; strain Burke, after 48 hours
  MIC: 75 µg/mL (≈ 292 µM)
Candida albicans; [5]
  MIC: 75 µg/mL (≈ 292 µM)
Candida albicans; strain Collins, after 48 hours
  MIC: 75 µg/mL (≈ 292 µM)
Candida albicans; strain Fix, after 48 hours
  MIC: 75 µg/mL (≈ 292 µM)
Candida albicans; strain Frazier, after 48 hours
  MIC: 75 µg/mL (≈ 292 µM)
Candida albicans; strain Fulcher, after 48 hours
  MIC: 75 µg/mL (≈ 292 µM)
Candida albicans; strain Gay, after 48 hours
  MIC: 75 µg/mL (≈ 292 µM)
Candida albicans; strain Hons, after 48 hours
  MIC: 75 µg/mL (≈ 292 µM)
Candida albicans; strain Johnson, after 48 hours
  MIC: 75 µg/mL (≈ 292 µM)
Candida albicans; [6]
  MIC: 75 µg/mL (≈ 292 µM)
Candida albicans; [7]
  MIC: 37.5 µg/mL (≈ 146 µM)
Candida albicans; strain Lehtman, after 48 hours
  MIC: 75 µg/mL (≈ 292 µM)
Candida albicans; strain Lusk, after 48 hours
  MIC: 75 µg/mL (≈ 292 µM)
Candida albicans; strain Merkel, after 48 hours
  MIC: 75 µg/mL (≈ 292 µM)
Candida albicans; strain Newcomb, after 48 hours
  MIC: 37.5 µg/mL (≈ 146 µM)
Candida albicans; strain Sherod, after 48 hours
  MIC: 75 µg/mL (≈ 292 µM)
Candida albicans; [8]
  MIC: 75 µg/mL (≈ 292 µM)
Candida albicans; strain Sparks, after 48 hours
  MIC: 75 µg/mL (≈ 292 µM)
Candida albicans; strain Tyner, after 48 hours
  MIC: 75 µg/mL (≈ 292 µM)
[2]; Oral
  LD50: > 1000 mg/kg
[2]; ip, I.P.
  LD50: 100 mg/kg
[2]; sc, S.C.
  LD50: 600 mg/kg
T. mentagrophytes; concentration 1%
  Average No. of Days to become negative, Cultures: 12.4 days
  Average No. of Days to become negative, Lesion: 14.4 days
  Average Sum of lesion scores, Days 1-5: 13.0
  Average Sum of lesion scores, Days 1-10: 25.0
T. mentagrophytes; concentration 4%
  Average No. of Days to become negative, Cultures: 5.6 days
  Average No. of Days to become negative, Lesion: 7.4 days
  Average Sum of lesion scores, Days 1-5: 10.0
  Average Sum of lesion scores, Days 1-10: 11.8

## NCc1[nH]c2ccc(Cl)cc2c1-c1ccc(Cl)cc1Cl [E]
[1]; 48 hrs
  MIC: 3 µg/mL (≈ 9.21 µM)
[1]; 72 hrs
  MIC: 3 µg/mL (≈ 9.21 µM)
Eubacterium lentum; 48 hrs
  MIC: 3 µg/mL (≈ 9.21 µM)
Eubacterium lentum; 72 hrs
  MIC: 3 µg/mL (≈ 9.21 µM)
Candida albicans; strain 1, after 48 hours
  MIC: 37.5 µg/mL (≈ 115 µM)
Candida albicans; strain 2, after 48 hours
  MIC: 37.5 µg/mL (≈ 115 µM)
Candida albicans; strain 3, after 48 hours
  MIC: 37.5 µg/mL (≈ 115 µM)
Candida albicans; strain 4, after 48 hours
  MIC: 17.5 µg/mL (≈ 53.7 µM)
Candida albicans; strain 5, after 48 hours
  MIC: 17.5 µg/mL (≈ 53.7 µM)
Candida albicans; strain 6, after 48 hours
  MIC: 37.5 µg/mL (≈ 115 µM)
Candida albicans; strain 8, after 48 hours
  MIC: 37.5 µg/mL (≈ 115 µM)
Candida albicans; strain 9, after 48 hours
  MIC: 37.5 µg/mL (≈ 115 µM)
Candida albicans; strain 29, after 48 hours
  MIC: 37.5 µg/mL (≈ 115 µM)
Candida albicans; [3]
  MIC: 37.5 µg/mL (≈ 115 µM)
Candida albicans; [4]
  MIC: 37.5 µg/mL (≈ 115 µM)
Candida albicans; strain Bevan, after 48 hours
  MIC: 37.5 µg/mL (≈ 115 µM)
Candida albicans; strain Blunden, after 48 hours
  MIC: 37.5 µg/mL (≈ 115 µM)
Candida albicans; strain Bognay, after 48 hours
  MIC: 37.5 µg/mL (≈ 115 µM)
Candida albicans; strain Boyer, after 48 hours
  MIC: 37.5 µg/mL (≈ 115 µM)
Candida albicans; strain Burke, after 48 hours
  MIC: 37.5 µg/mL (≈ 115 µM)
Candida albicans; [5]
  MIC: 37.5 µg/mL (≈ 115 µM)
Candida albicans; strain Collins, after 48 hours
  MIC: 37.5 µg/mL (≈ 115 µM)
Candida albicans; strain Fix, after 48 hours
  MIC: 37.5 µg/mL (≈ 115 µM)
Candida albicans; strain Frazier, after 48 hours
  MIC: 37.5 µg/mL (≈ 115 µM)
Candida albicans; strain Fulcher, after 48 hours
  MIC: 37.5 µg/mL (≈ 115 µM)
Candida albicans; strain Gay, after 48 hours
  MIC: 37.5 µg/mL (≈ 115 µM)
Candida albicans; strain Hons, after 48 hours
  MIC: 37.5 µg/mL (≈ 115 µM)
Candida albicans; strain Johnson, after 48 hours
  MIC: 37.5 µg/mL (≈ 115 µM)
Candida albicans; [6]
  MIC: 37.5 µg/mL (≈ 115 µM)
Candida albicans; [7]
  MIC: 37.5 µg/mL (≈ 115 µM)
Candida albicans; strain Lehtman, after 48 hours
  MIC: 37.5 µg/mL (≈ 115 µM)
Candida albicans; strain Lusk, after 48 hours
  MIC: 37.5 µg/mL (≈ 115 µM)
Candida albicans; strain Merkel, after 48 hours
  MIC: 37.5 µg/mL (≈ 115 µM)
Candida albicans; strain Newcomb, after 48 hours
  MIC: 17.5 µg/mL (≈ 53.7 µM)
Candida albicans; strain Sherod, after 48 hours
  MIC: 37.5 µg/mL (≈ 115 µM)
Candida albicans; [8]
  MIC: 37.5 µg/mL (≈ 115 µM)
Candida albicans; strain Sparks, after 48 hours
  MIC: 37.5 µg/mL (≈ 115 µM)
Candida albicans; strain Tyner, after 48 hours
  MIC: 37.5 µg/mL (≈ 115 µM)
[2]; Oral
  LD50: ~700 mg/kg
[2]; ip, I.P.
  LD50: 85 mg/kg
[2]; sc, S.C.
  LD50: 540 mg/kg
T. mentagrophytes; concentration 1%
  Average No. of Days to become negative, Cultures: > 22 days
  Average No. of Days to become negative, Lesion: > 22 days
  Average Sum of lesion scores, Days 1-5: 12.6
  Average Sum of lesion scores, Days 1-10: 34.2
T. mentagrophytes; concentration 4%
  Average No. of Days to become negative, Cultures: 6.6 days
  Average No. of Days to become negative, Lesion: 9.2 days
  Average Sum of lesion scores, Days 1-5: 11.6
  Average Sum of lesion scores, Days 1-10: 15.2

## NCc1[nH]c2ccc(Cl)cc2c1-c1ccccc1F [A, 2-Aminomethyl-5-chloro-3-(2-fluorophenyl)indole]
[1]; 48 hrs
  MIC: 7.5 µg/mL (≈ 27.3 µM)
[1]; 72 hrs
  MIC: 7.5 µg/mL (≈ 27.3 µM)
Eubacterium lentum; 48 hrs
  MIC: 17.5 µg/mL (≈ 63.7 µM)
Eubacterium lentum; 72 hrs
  MIC: 17.5 µg/mL (≈ 63.7 µM)
Candida albicans; strain 1, after 48 hours
  MIC: 75 µg/mL (≈ 273 µM)
Candida albicans; strain 2, after 48 hours
  MIC: 75 µg/mL (≈ 273 µM)
Candida albicans; strain 3, after 48 hours
  MIC: 75 µg/mL (≈ 273 µM)
Candida albicans; strain 4, after 48 hours
  MIC: 75 µg/mL (≈ 273 µM)
Candida albicans; strain 5, after 48 hours
  MIC: 75 µg/mL (≈ 273 µM)
Candida albicans; strain 6, after 48 hours
  MIC: 75 µg/mL (≈ 273 µM)
Candida albicans; strain 8, after 48 hours
  MIC: 75 µg/mL (≈ 273 µM)
Candida albicans; strain 9, after 48 hours
  MIC: 75 µg/mL (≈ 273 µM)
Candida albicans; strain 29, after 48 hours
  MIC: 75 µg/mL (≈ 273 µM)
Candida albicans; [3]
  MIC: 75 µg/mL (≈ 273 µM)
Candida albicans; [4]
  MIC: 75 µg/mL (≈ 273 µM)
Candida albicans; strain Bevan, after 48 hours
  MIC: 75 µg/mL (≈ 273 µM)
Candida albicans; strain Blunden, after 48 hours
  MIC: 75 µg/mL (≈ 273 µM)
Candida albicans; strain Bognay, after 48 hours
  MIC: 75 µg/mL (≈ 273 µM)
Candida albicans; strain Boyer, after 48 hours
  MIC: 75 µg/mL (≈ 273 µM)
Candida albicans; strain Burke, after 48 hours
  MIC: 75 µg/mL (≈ 273 µM)
Candida albicans; [5]
  MIC: 75 µg/mL (≈ 273 µM)
Candida albicans; strain Collins, after 48 hours
  MIC: 75 µg/mL (≈ 273 µM)
Candida albicans; strain Fix, after 48 hours
  MIC: 75 µg/mL (≈ 273 µM)
Candida albicans; strain Frazier, after 48 hours
  MIC: 75 µg/mL (≈ 273 µM)
Candida albicans; strain Fulcher, after 48 hours
  MIC: 75 µg/mL (≈ 273 µM)
Candida albicans; strain Gay, after 48 hours
  MIC: 75 µg/mL (≈ 273 µM)
Candida albicans; strain Hons, after 48 hours
  MIC: 75 µg/mL (≈ 273 µM)
Candida albicans; strain Johnson, after 48 hours
  MIC: 75 µg/mL (≈ 273 µM)
Candida albicans; [6]
  MIC: 75 µg/mL (≈ 273 µM)
Candida albicans; [7]
  MIC: 37.5 µg/mL (≈ 136 µM)
Candida albicans; strain Lehtman, after 48 hours
  MIC: 75 µg/mL (≈ 273 µM)
Candida albicans; strain Lusk, after 48 hours
  MIC: 75 µg/mL (≈ 273 µM)
Candida albicans; strain Merkel, after 48 hours
  MIC: 75 µg/mL (≈ 273 µM)
Candida albicans; strain Newcomb, after 48 hours
  MIC: 37.5 µg/mL (≈ 136 µM)
Candida albicans; strain Sherod, after 48 hours
  MIC: 75 µg/mL (≈ 273 µM)
Candida albicans; [8]
  MIC: 75 µg/mL (≈ 273 µM)
Candida albicans; strain Sparks, after 48 hours
  MIC: 75 µg/mL (≈ 273 µM)
Candida albicans; strain Tyner, after 48 hours
  MIC: 75 µg/mL (≈ 273 µM)
[2]; Oral
  LD50: > 1000 mg/kg
[2]; ip, I.P.
  LD50: 250 mg/kg
[2]; sc, S.C.
  LD50: 850 mg/kg
T. mentagrophytes; concentration 1%
  Average No. of Days to become negative, Cultures: 6.8 days
  Average No. of Days to become negative, Lesion: 9.0 days
  Average Sum of lesion scores, Days 1-5: 11.8
  Average Sum of lesion scores, Days 1-10: 16.0
T. mentagrophytes; concentration 4%
  Average No. of Days to become negative, Cultures: 6.0 days
  Average No. of Days to become negative, Lesion: 8.8 days
  Average Sum of lesion scores, Days 1-5: 11.2
  Average Sum of lesion scores, Days 1-10: 14.8
